Assays:
[1] = biological target: GGTase I (K-Ras4B as substrate) (Homo sapiens, UniProt P49354+P53609); experiment: GGTase I filter-binding assay, K-Ras4B as substrate (library screens); format: biochemical; settings: compound 50 μM; DMSO = 100%; smaller = better inhibition; 50 µM
Procedure: (§1) The pilot library was screened for inhibitors of protein geranylgeranyltransferase type I. Protein prenyltransferase assays were carried out by using filter binding. Two different substrates, RhoA and K-Ras4B, were used for the assay. RhoA ends with the CaaL motif and is an exclusive substrate for GGTase I, while K-Ras4B ends with the CaaX motif and is modified by both GGTase I and FTase.
(§2) In the assay, a fixed concentration of 100 μM was used and the results are plotted for the inhibition of RhoA (vertical axis) as well as for K-Ras4B (horizontal axis). […] They are 2,6-diaryl-N-tosyl-1,2,5,6-tetrahydropyridine-3-carboxylic acids, except P2-D5 that is missing an aryl substituent at C2.
The % activity of GGTase I was determined as follows: a working solution that contained each compound in DMSO at the concentration of 1 mM was prepared. The working solution was added to GGTase I reaction mixture so that the final concentration of the compound is 50 μM. GGTase I activity was assayed by incubating [^3H]GGPP with K-Ras4B or RhoA protein in the presence of GGTase I and examining radioactivity incorporated into the substrate protein by spotting onto a filter paper. After washing with TCA, ethanol and acetone, the radioactivity retained on the filter was determined by the use of a scintillation counter. GGTase I activity in the presence of DMSO was taken as a 100% value and the activity in the presence of the compound was shown as percent activity compared with the 100% value. […] For 6-aryl-4-mercapto-N-sulfonyl-piperidine-3-carboxylic acid 11 the 4-mercapto substituent appeared critical to endowing GGTase inhibitory activity. […] 4-Chlorobenzylthio substituent was the next best; 12 compounds out of 21 containing the 4-chlorobenzylthio moiety were active. 4-Benzylthio substituent was also good; 7 piperidines out of 21 bearing 4-benzylthio group were active. […] 19 imines (C15>C12=C41>C40>C01=C11>C05=C10=C30=C35=C37=C38>C02, C03, C04, C06, C39=C43) out of 21 appeared in the GGTIs. […] This corresponds to 47 6-aryl-4-mercapto-N-sulfonyl-piperidine-3-carboxylic acids out of 357 compounds.
A collection of 138 heterocycles was screened for their ability to inhibit the activity of human GGTase-I to geranylgeranylate K-Ras4B or RhoA. Purified GGTase-I was incubated with its substrate protein K-Ras4B or RhoA, [^3H]GGPP, and the 138 compounds. After 30 min, the degree of incorporation of tritiated geranylgeranyl groups was measured using a scintillation counter.

[2] = biological target: GGTase I (RhoA as substrate) (Homo sapiens, UniProt P49354+P53609); experiment: GGTase I filter-binding assay, RhoA as substrate (library screens); format: biochemical; settings: compound 50 μM, DMSO = 100%, smaller = better inhibition
Procedure: as §1, §2
The % activity of GGTase I was determined as follows: a working solution that contained each compound in DMSO at the concentration of 1 mM was prepared. The working solution was added to GGTase I reaction mixture so that the final concentration of the compound is 50 μM. GGTase I activity was assayed by incubating [^3H]GGPP with K-Ras4B or RhoA protein in the presence of GGTase I and examining radioactivity incorporated into the substrate protein by spotting onto a filter paper. After washing with TCA, ethanol and acetone, the radioactivity retained on the filter was determined by the use of a scintillation counter. GGTase I activity in the presence of DMSO was taken as a 100% value and the activity in the presence of the compound was shown as percent activity compared with the 100% value. […] For 6-aryl-4-mercapto-N-sulfonyl-piperidine-3-carboxylic acid 11 the 4-mercapto substituent appeared critical to endowing GGTase inhibitory activity. […] 4-Chlorobenzylthio substituent was the next best; 12 compounds out of 21 containing the 4-chlorobenzylthio moiety were active. […]
A collection of 138 heterocycles was screened for their ability to inhibit the activity of human GGTase-I to geranylgeranylate K-Ras4B or RhoA. […] After 30 min, the degree of incorporation of tritiated geranylgeranyl groups was measured using a scintillation counter.

| Compound | % activity of GGTase I for K-Ras4B in the presence of the compound [1] [%] | % activity of GGTase I for RhoA in the presence of the compound [2] [%] |
| --- | --- | --- |
| Cc1ccccc1S(=O)(=O)N1C(c2ccc(Cl)cc2)CC=C(C(=O)O)[C@@H]1c1ccccc1 (stereo partly shown) [drawing 33] | 10.6 | 8.8 |
| Cc1ccccc1S(=O)(=O)N1C(c2ccc(Cl)cc2)CC=C(C(=O)O)[C@@H]1c1ccccc1 (stereo partly shown) [drawing 42] | 5.4 | 3.0 |
